Several values for one entry are separate records, joined by “and”; a condition that tells them apart may be missing. Identical values can stand only once.
Target: T1, Cholesteryl ester transfer protein (Homo sapiens, UniProt P11597)
T1 sequence (P11597 whole entry): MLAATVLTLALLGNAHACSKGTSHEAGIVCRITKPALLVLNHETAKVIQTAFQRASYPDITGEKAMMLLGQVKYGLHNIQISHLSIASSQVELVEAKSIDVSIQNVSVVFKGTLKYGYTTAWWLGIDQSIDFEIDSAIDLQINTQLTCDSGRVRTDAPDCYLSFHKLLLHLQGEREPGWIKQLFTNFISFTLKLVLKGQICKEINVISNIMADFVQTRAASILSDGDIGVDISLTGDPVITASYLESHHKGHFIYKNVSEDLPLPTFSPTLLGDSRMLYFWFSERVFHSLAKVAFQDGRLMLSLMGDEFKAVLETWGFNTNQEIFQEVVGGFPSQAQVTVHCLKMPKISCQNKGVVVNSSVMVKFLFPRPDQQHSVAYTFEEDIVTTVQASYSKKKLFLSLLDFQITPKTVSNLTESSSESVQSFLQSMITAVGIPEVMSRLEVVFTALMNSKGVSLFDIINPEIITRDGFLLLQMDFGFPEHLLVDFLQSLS
Assay: CETP Inhibition Assay: A recombinant human CETP protein (manufactured by Roar Biomedical Inc.; 4.5 ng), the acceptor lipoprotein described in (2) above (32.5 μg) and 5,5'-dithio-bis-(2-nitrobenzoic acid) (7 mM, 15 μl) were taken in a 96 well plate and the total amount of the mixture was adjusted to 48.5 μl with the PBS solution. The test compound [DMSO solution (concentration: 0.15, 0.5, 1.5, 5, 15, 50, 150 and 500 μM); 1.5 μl] was added to each well and the mixture was incubated in a thermostatic bath at 37 °C. for 60 minutes. The reconstituted HDL (50 μl) described in (1) above was added to each well and the mixture was reacted in a thermostatic bath at 37 °C. for 60 minutes. The 96 well plate was moved onto ice and a precipitation reagent [a mixed solution of magnesium chloride (60 mM) and 0.1% dextran sulfate[1/1(v/v)]; 15 μl] was added to each well, and then the mixture was allowed to stand on ice for 15 minutes. The reaction solution (80 μl) in each well was moved to a filter plate and centrifuged at 1500 rpm for 1 minute, and the filtrate which passed through the filter was designated as the HDL fraction and the radioactivity thereof was measured with a scintillation counter.

CC(C)(O)CCOc1cnc(N2CCC(c3nc4c(c(C5CCC(F)(F)CC5)c3[C@@H](F)c3ccc(C(F)(F)F)cc3)[C@@H](O)CC(C)(C)C4)CC2)nc1
IC50: 17.8 nM and 21.3 nM

Reference: ChEMBL document CHEMBL3886662, “Acid addition salt of substituted pyridine compound” (2016)
